Data on one compound can be found in US20150057316A1, “NOVEL SULFONATE-BASED TRIMEBUTINE SALTS” (GICARE PHARMA INC., priority 2012, published 2015).

Data set [1] can be described thus: recovery of counter-ion and metabolites in urine and feces of dogs. Type of data set: in vivo. The following applies: for mean total recovery of the unchanged counter-ion: urine and feces up to 48 hr. On the procedure: (§1) Trimebutine 3-thiocarbamoyl-benzenesulfonate was administered as a cross over design once, each dosing separated by at least a 7-day washout period. During this study, assessments included mortality checks, clinical observations, and body weights. Feces and urine samples were collected up to 48 hr post-administration. Blood samples were also collected for pharmacokinetic evaluations on Days 1 and 8 at 10 time points. Pharmacokinetic data are presented in the two following Figures.
After proper preparation of the urine and feces samples, 3-thiocarbamoyl-benzenesulfonate counter-ion and its two potential metabolites (3-cyanobenzenesulfonate and 3-sulfobenzoate) were assessed using a LC/MS/MS method, with analysis by MRM, ESI-. Calibration curves were prepared for each analyte in blank feces homogenate, following the same procedure.

The test system of data set [2] is colorectal distension induced pain. The data set is described as follows: electromyographic colorectal distension (CRD) induced pain model. It is filed as in vivo, mice. The conditions noted are these: for VMR response to colorectal distension compared to the control group: mice, 30 and 60 mg/kg oral. An excerpt:
The purpose was to evaluate the antinociceptive effects of Example 20 in an electromyographic colorectal distension (CRD) induced pain model. This model is recognized by experts in the field to be less subjective than the rat Abdominal Withdrawal Response (AWR) colorectal distension model, and has been used to assess the analgesic and sedative properties of several new compounds, including IBS drugs Zhuo, M; Gebhart, G. F. Facilitation and attenuation of a visceral nociceptive reflex from the rostroventral medulla in the rat. Gastroenterology, 2002, 122 1007-1019; Larsson, M. H.; Rapp, L.; Lindström, E. Effect of DSS-induced colitis on visceral sensitivity to colorectal distension in mice. Neurogastroenterology & Motility, 2006, 18, 144-152; Arvidsson, S.; Larsson, M.; Larsson, H.; Lindström, E.; Martinez, V. J. Pain, 2006, 7, 108-118; Jones, R. C. W.; Gebhart, G. F. Models of Visceral Pain: Colorectal Distension (CRD). Currrent Protocols in Pharmacology, 2004, 5.36, DOI: 10.1002/0471141755.ph0536s25.]
Three groups of 10 male mice (C57Bl6) were used: 2 groups received treatments with […] and one group received their vehicle […].
The groups were divided as follows: • i. 2 groups of 10 mice received an oral administration of Example 20 at two doses, 30 and 60 mg/kg. • ii. 1 group of 10 mice received an oral administration of the vehicle (PEG 200) use to administer Example 20.
All groups were implanted with electrodes in the abdominal external oblique musculature under anaesthesia. The surgery for electrode implantation was performed 5 days before the day of the experiment. The day of the experiment, colorectal distension (CRD) was performed in all animals, by inserting a balloon (10-mm long) into the colon, at 5 mm from the anus. The balloon was inflated with warm water, in a stepwise manner, from 0 to 60 mm Hg, with 15 mm Hg increments. […] At various times after these treatments: 2, 4 and 6-hours, the same series of stepwise CRD were performed and electromyographic responses (VMR in millivolts/sec) were recorded.

Data set [3] is described as follows: accelerated stability protocol. The following applies: Polymorph B, 40±2° C., 75±5% RH, six months. It is filed as physicochemical. On the procedure:
The long-term stability of Example 20 was assessed using an accelerated stability protocol. For this purpose, samples of Example 20—Polymorph B was placed in borosilicate vials polyethylene plastic bags, sealed in an aluminum bag, and placed in a fiber drum with desiccant. The samples where then subjected to 40±2° C. with 75±5% relative humidity (RH), and stability was monitored at time 0, 1, 2, 3 and 6 months using a standardized HPLC method.

For a further data set, the system named is male Sprague-Dawley rats. The data set is described as follows: preliminary toxicological evaluation following p.o. administration in rats. It is filed as in vivo. The procedure: A preliminary toxicological evaluation of the compound was done in 250-300 g male Sprague-Dawley rats. Animals were randomized into one of three dosing group, i.e. 250, 500 or 1,000 mg/kg administered by oral gavage. Following administration of the test article, animals were observed hourly for the first 8 hr post-dosing for clinical signs and twice daily thereafter until termination on Day 7. Three animals per group were sacrificed by exsanguination under general anesthesia at 24-hr post dosing or on Day 7 and a gross necropsy was performed in all animals. Additionally, all three rats having received the 500 mg/kg dose and scheduled for sacrifice on Day 7 were placed in individual metabolic cages immediately following test article administration, in order to collect feces and urine during 48 hr. Blood samples were collected terminally from each rat for hematology and serum chemistry evaluation.

A further data set concerns Beagle dogs. The data set is described as follows: i.v./p.o. cross over study in dogs, toxicological assessment. It is filed as in vivo. The conditions noted are these: 2 mg/kg i.v. or 10 mg/kg p.o. The procedure: as §1
In the next data set the test system is Sprague-Dawley rats. The data set is described as follows: single dose acute and 7-day range-finding oral toxicity study in rats. Type of data set: in vivo. On the procedure:
Consequently, a single dose acute and 7-day range-finding oral toxicity study in Sprague-Dawley rats was conducted. During the single dose acute phase of the study, the test article was administered as a single dose by oral gavage to groups of 3 male and 3 female Sprague-Dawley rats, each group receiving a higher or lower dose level, based on the reaction of the previous group during the first day of the observation period.
Upon completion of the 7-day treatment period, all animals were euthanized and subjected to a gross necropsy examination (Day 8 study). Clinical signs (ill health, behavioral changes, etc.) were recorded on all surviving animals. Clinical pathology evaluations (hematology, clinical chemistry and coagulation parameters) were performed on all surviving animals (single dose acute & range-finding phases) prior to their scheduled necropsy. Blood samples were collected terminally from the abdominal aorta (while anesthetized with isoflurane).

Setting [4] is: male rats, single oral dose 250, 500 or 1000 mg/kg.

Bounds are passed on as bounds.

As for `CCC(COC(=O)c1cc(OC)c(OC)c(OC)c1)(c1ccccc1)N(C)C.NC(=S)c1cccc(S(=O)(=O)O)c1` (stereo not drawn) [Example 20], in data set [1] (2 mg/kg i.v.), the “additional recovery as metabolite 3-cyanobenzenesulfonate” value is 4.7%, the “recovery associated to 3-sulfobenzoate” value was 0.6% and the “mean total recovery of the unchanged counter-ion” value is listed as “about 72%”. For the same compound, in data set [1] (10 mg/kg p.o.), the 3-sulfobenzoate in urine entry is reported as “not detected”, the “additional recovery as metabolite 3-cyanobenzenesulfonate” value was 14.5%, the “recovery associated to 3-sulfobenzoate” value is reported as 1.7% and the “mean total recovery of the unchanged counter-ion” value was “about 61%”. For the same compound, in data set [2] (VMR mouse model, overall conclusion), the “antinociceptive effects on colorectal distension induced pain” value is reported as “significant antinociceptive effects”. Besides, the “VMR response to colorectal distension compared to the control group” value in data set [2] (after 2 and 4 hours) was “overall reduction of the VMR response”. The “VMR response to colorectal distension compared to the control group” value in data set [2] (at 6 hours, not statistically different from control) is reported as “trend toward efficacy”. In data set [3], the “HPLC purity after storage” value was greater than 99.7% and the degradation entry is listed as “no degradation had been observed”. In addition, in the data set with male Sprague-Dawley rats (male rats, single oral dose), the hematology parameters entry is on record as “No significant changes”; the “serum biochemistry variations compared to control (e.g., amylase, creatinine)” value is “minor, transient and remained within the normal range for the species”. Further, in the data set on male Sprague-Dawley rats (setting [4]), the “mortality or clinical signs” value is recorded as “No mortality or clinical signs were observed” and the tolerability result is “well tolerated”. The necropsy findings entry in the data set on male Sprague-Dawley rats (rats sacrificed on Day 7, 500 or 1000 mg/kg p.o.) is on record as “pale and/or enlarged lungs in a few animals”. Also, in the data set with Beagle dogs, the bodyweight result was “no change in bodyweight”, the death result is reported as “no death reported” and the toxicity result is recorded as “no indication of any toxicity”. In addition, the “dose well tolerated over 7 days without significant clinical signs of toxicity” value in the data set with Sprague-Dawley rats (male and female rats, once daily oral gavage, 7 days) is given as 1,000 mg/kg. The “death and clinical signs of toxicity” value in the data set with Sprague-Dawley rats (male and female rats, single oral dose up to 2,000 mg/kg) was “no death and no significant clinical signs of toxicity”. Besides, the single dose well-tolerated entry in the data set with Sprague-Dawley rats (male and female rats, single oral gavage) is listed as “up to 2,000 mg/kg”. The “deaths during 7-day repeat dose regimen” value in the data set with Sprague-Dawley rats (rats, 2,000 mg/kg once daily p.o., deaths after 3 and 5 days) is listed as “two animals from the 2,000 mg/kg dose group died”.
